This note sets out measurements from ChEMBL document CHEMBL1201862, “PubChem BioAssay data set” (2004).

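Step 1: Grow cells in 96-well plates. Step 2: Expose to compound for 48 hours at 5 concentrations. Step 3: Interpolate endpoints linearly; if unreached, use highest concentration. Abbreviation: GI50, concentration required for 50% inhibition of growth.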 Activity calls are given as the source filed them. Rule as the data show it: active = GI50 up to about 1.1 µM and inactive = higher.

Some test systems named below: DU-145; EKVX; HCC 2998; HCT-15; HL-60; HOP-62; HT-29; Hs-578T; MOLT-4; NCI-H226; NCI-H522; NCI/ADR-RES; PC-3; RXF 393; SK-OV-3; SN12C; SNB-19; T47D; UACC-257; UO-31.
Holding throughout (test): NCI anticancer screen, dose series, 48 h

Turning to `CCOC(=O)/C(=C\c1ccc(C#N)cc1)C(C)=O`, the GI50 with DU-145 was 18.2 µM (inactive); in the test on EKVX it was 49.7 µM (inactive); with HCC 2998 it was 5.92 µM (inactive); in the test on HCT-15, 18.2 µM; with HL-60, 34 µM (inactive); in the test on HOP-62 it was 36.8 µM (inactive). For the same molecule, the GI50 in the test on HT-29 is 33.4 µM (inactive); with Hs-578T it was 24.3 µM (inactive); with MOLT-4, 25.5 µM (inactive); in the test on NCI-H226, 35.1 µM (inactive); in the test on NCI-H522, 11.5 µM (inactive); with NCI/ADR-RES, 28.1 µM (inactive). Also, the GI50 with PC-3 was 18.5 µM (inactive); in the test on RXF 393 it was 15.3 µM (inactive); with SK-OV-3, 40.8 µM (inactive); with SN12C, 25.2 µM (inactive); in the test on SNB-19, 45.1 µM (inactive); in the test with T47D, 21.4 µM (inactive). For the same molecule, the GI50 is 18.6 µM (inactive) in the test with UACC-257 and 13.8 µM (inactive) in the test on UO-31.
For `O=C(N/N=C/c1ccc2c(c1)OCO2)Nc1ccccc1Cl`, the GI50 with DU-145 is 2.02 µM (inactive); in the test with EKVX, 8.07 µM (inactive); in the test with HCC 2998 it was 0.361 µM (active); in the test on HCT-15, 0.418 µM; in the test on HL-60, 0.565 µM (active); with HOP-62, 2.61 µM (inactive). Also, the GI50 with HT-29 was 0.8 µM (active); in the test with Hs-578T, 1.66 µM (inactive); in the test on MOLT-4, 0.462 µM (active); in the test on NCI-H226 it was 4.19 µM (inactive); in the test on NCI-H522, 0.233 µM (active); in the test with NCI/ADR-RES, 0.335 µM (active). The GI50 with PC-3 was 2.21 µM (inactive); with RXF 393, 1.57 µM (inactive); with SK-OV-3, 2.77 µM (inactive); with SN12C, 0.847 µM (active); in the test on SNB-19, 3.7 µM (inactive); in the test on T47D, 2.08 µM (inactive). For the same molecule, the figures for the GI50 in the test on UACC-257 and with UO-31 were 2.23 µM (inactive) and 4.25 µM (inactive), respectively.
In the case of `CCCCCCc1cc2cc(-c3cn4ccsc4n3)c(=O)oc2cc1O`, the GI50 with DU-145 was > 79.1 µM (inactive); with EKVX, > 77.6 µM (inactive); in the test on HCC 2998, > 100 µM (inactive); in the test on HCT-15, > 90.4 µM; with HL-60 it was > 100 µM (inactive); with HOP-62, 64.9 µM (inactive). Also, the GI50 in the test with HT-29 was > 100 µM (inactive); with Hs-578T, 20.4 µM (inactive); with MOLT-4, > 100 µM (inactive); in the test with NCI-H226, > 100 µM (inactive); in the test on NCI-H522 it was 29.2 µM (inactive); with NCI/ADR-RES, > 100 µM (inactive). Also, the GI50 in the test with PC-3 is > 100 µM (inactive); with RXF 393 it was 29.3 µM (inactive); in the test with SK-OV-3 it was > 100 µM (inactive); with SN12C, > 100 µM (inactive); in the test on SNB-19 it was > 100 µM (inactive); with T47D, > 100 µM (inactive). In addition, the GI50 in the test on UACC-257 is > 24.5 µM (inactive); with UO-31, > 100 µM (inactive).
